Where no end group is shown, it is not given here.
What was measured:
[1] = molecular target: T1, Opp permease (Opp-only strain O+;A-, expressing RapC, RapF or RapP) (Bacillus subtilis, UniProt P24141); assay: Co-culture PsrfA-3×yfp reporter response to added Phr peptide, Opp-only strain; format: cell-based
T1 construct: full deletion mutants of the App (Opp-only; O^+;A^-) and Opp (App-only; O^-;A^+) operons; endogenous in cells; host or cells: Bacillus subtilis 3610 (plasmid-free), Opp-only strains O+;A- (AES7204, AES7202, AES5524, AES7207)
Method: (§1) Flow cytometry was performed to quantify gene expression at the single-cell level, using a Beckman-Coulter Gallios flow-cytometer equipped with four lasers (405 nm, 488 nm co-linear with 561 nm, 638 nm). The emission filters used were as follows: BFP – 450/50, YFP – 525/40, mCherry – 620/30. Two methods were used to distinguish between co-cultured cells. Strains coding for rapP where transformed by plasmids carrying either an mCherry or mTag2-BFP genes under a constitutive promoter. For the rest of the strains, the same constructs were integrated into the bacterial genome at the lacA locus. YFP levels were measured relative to a set voltage, which was approximately set such that a value of 1 will be given to autofluorescence of strain PY79 in SMM medium.
(§2) Cells were grown to OD600 <0.1, in SMM medium containing trace elements and glucose, then diluted by a factor of 10^6 or 10^7 into fresh SMM medium and grown for about 16 h in exponential phase. In co-culture gene-expression experiments, each strain was grown from a single colony in SMM to OD600 <0.1 or diluted to 0.1 prior to strain mixing. The two strains were mixed at equal volumes and then diluted by a factor of 10^6 or 10^7 in fresh SMM medium. Samples were taken from cultures at several time-points. At each time point OD600nm was measured using a spectrophotometer and fluorescence was measured using a flow cytometry. […]

[2] = tested on: App permease (App-only strain O-;A+, expressing RapC, RapF or RapP); assay: Co-culture PsrfA-3×yfp reporter response to added Phr peptide, App-only strain; format: cell-based, Bacillus subtilis; conditions: co-culture with Opp-only strain, SMM, 3 h after peptide addition, PhrP increase at concentrations higher than 1 µM
Method: as §1, §2

[3] = tested on: App permease; conditions: previous work; cited from earlier work
Description: App was also as effective as Opp in uptaking the PapR pentapeptide, but not in importing the PhrC/F/P pentapeptides. Previous work has identified several App transported peptides, including the nonapeptide […] [[2, 50]].

[4] = tested on: Opp permease (Opp-only strain O+;A-, AES7413, expressing RapA); assay: Co-culture PspoIIG-3×yfp early sporulation reporter, RapA strain, Opp-only; format: cell-based, Bacillus subtilis; conditions: 10 µM peptide, SMM with very low glucose, 3 h, ON = 10-fold higher than background
Method: as §1
(§3) Cells were grown to OD600 <0.1, in SMM medium containing trace elements and glucose, then diluted by a factor of 10^6 or 10^7 into fresh SMM medium and grown for about 16 h in exponential phase. […] At each time point OD600nm was measured using a spectrophotometer and fluorescence was measured using a flow cytometry. […]
(§4) Fig. 5. […] ON cells are determined as the cells that have expressed P spoIIG-3 ×yfp 10-fold higher than background. […] YFP levels were measured for single cells using flow cytometry 3 h after the peptide was added to co-culture of both strains, App and Opp. […]

[5] = tested on: App permease (App-only strain O-;A+, AES7410, expressing RapA); assay: Co-culture PspoIIG-3×yfp early sporulation reporter, RapA strain, App-only; format: cell-based, Bacillus subtilis; conditions: maximal peptide concentration, SMM with very low glucose, 3 h
Method: as §1, §3, §4

[6] = tested on: ɸ3T infection of B. subtilis 3610 plasmid-free permease variants; assay: Phage ɸ3T infection dynamics (optical density) in presence of arbitrium peptide; format: cell-based, Bacillus subtilis; conditions: ɸ3T m.o.i.=0.1 in LB
Method: Overnight culture grown in LB of the appropriate strain was diluted by a factor of 1 : 100 into fresh containing 0.1 mM MnCl2 and 5 mM MgCl2. The strains were then grown at 37 °C with shaking at 220 r.p.m. Upon reaching an of OD600=0.3, the strains infected with free ɸ3T at m.o.i.=0.1 and supplemented with 10 µM of the synthetic peptide SAIRGA. Optical density measurements at a wavelength of 600 nm were performed in a 96-well plate using a plate reader (PerkinElmer VICTOR Nivo 622 Multimode Plate Reader).
We wondered whether App is capable of transporting the signalling molecules of arbitrium, the second RRNPP system found in B. subtilis phages. The B. subtilis phage φ3T utilizes an arbitrium system with the small peptide SAIRGA to control the lysis-lysogeny and induction decisions [[17, 22]]. Increased signal concentration tilts the decision towards lysogeny. To further examine the impact of App and Opp on quorum-sensing-dependent activation of φ3T horizontal transfer, we utilized a plate reader to examine the phage infection dynamics by monitoring its impact on optical density during infection of the different variants in Lysogeny Broth (LB) medium.
Fig. 4. […] Growth curves are represented as the mean optical density (dark colour) and its error (light grey) as a function of time (minutes) taken using a plate-reader. […]

[7] = molecular target: T2, App permease, App^3610 allele (App-only strain O-;A+, AES7075, expressing PlcR) (Bacillus subtilis, UniProt P42061); assay: Co-culture PplcA-3×yfp reporter of PlcR receivers, App-only strain (App3610); format: cell-based
T2 construct: full deletion mutants of the App (Opp-only; O^+;A^-) and Opp (App-only; O^-;A^+) operons; endogenous in cells; host or cells: Bacillus subtilis 3610 (plasmid-free), App-only strain O-;A+ (AES7075)
Method: as §1
as §2, with “The two strains were mixed at equal volumes and then diluted by a factor of 10^6 or 10^7 in fresh SMM medium. Samples were taken from cultures at several time-points.” left out
(§5) Fig. 8. […] YFP levels were measured for single cells using flow cytometry 3 h after the peptide was added. […] Biological repeats at the same concentrations were measured on different days. […]

[8] = molecular target: T3, Opp permease (Opp-only strain O+;A-, AES7207, expressing PlcR) (Bacillus subtilis, UniProt P24141); assay: Co-culture PplcA-3×yfp reporter of PlcR receivers, Opp-only strain; format: cell-based
T3 construct: full deletion mutants of the App (Opp-only; O^+;A^-) and Opp (App-only; O^-;A^+) operons; endogenous in cells; host or cells: Bacillus subtilis 3610 (plasmid-free), Opp-only strains O+;A- (AES7204, AES7202, AES5524, AES7207)
Method: as §1
as §2, with “The two strains were mixed at equal volumes and then diluted by a factor of 10^6 or 10^7 in fresh SMM medium. Samples were taken from cultures at several time-points.” left out
as §5

T1 sequence (P24141 21-545): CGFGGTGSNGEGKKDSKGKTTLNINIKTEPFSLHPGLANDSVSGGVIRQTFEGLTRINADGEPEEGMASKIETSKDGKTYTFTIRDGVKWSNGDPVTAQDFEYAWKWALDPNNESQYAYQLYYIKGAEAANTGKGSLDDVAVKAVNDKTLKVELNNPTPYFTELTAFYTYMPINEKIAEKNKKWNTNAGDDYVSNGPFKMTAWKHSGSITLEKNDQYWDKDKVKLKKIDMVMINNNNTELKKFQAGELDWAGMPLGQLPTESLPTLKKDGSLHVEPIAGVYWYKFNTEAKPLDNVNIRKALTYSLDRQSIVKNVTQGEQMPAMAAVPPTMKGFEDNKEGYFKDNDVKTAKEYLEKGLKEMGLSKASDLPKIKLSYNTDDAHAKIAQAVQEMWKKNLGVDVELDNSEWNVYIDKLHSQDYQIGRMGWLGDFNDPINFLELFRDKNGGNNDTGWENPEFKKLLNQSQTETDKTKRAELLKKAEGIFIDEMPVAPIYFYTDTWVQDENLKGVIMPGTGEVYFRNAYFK
T3 sequence (P24141 21-545): as above
T2 sequence (P42061 24-543): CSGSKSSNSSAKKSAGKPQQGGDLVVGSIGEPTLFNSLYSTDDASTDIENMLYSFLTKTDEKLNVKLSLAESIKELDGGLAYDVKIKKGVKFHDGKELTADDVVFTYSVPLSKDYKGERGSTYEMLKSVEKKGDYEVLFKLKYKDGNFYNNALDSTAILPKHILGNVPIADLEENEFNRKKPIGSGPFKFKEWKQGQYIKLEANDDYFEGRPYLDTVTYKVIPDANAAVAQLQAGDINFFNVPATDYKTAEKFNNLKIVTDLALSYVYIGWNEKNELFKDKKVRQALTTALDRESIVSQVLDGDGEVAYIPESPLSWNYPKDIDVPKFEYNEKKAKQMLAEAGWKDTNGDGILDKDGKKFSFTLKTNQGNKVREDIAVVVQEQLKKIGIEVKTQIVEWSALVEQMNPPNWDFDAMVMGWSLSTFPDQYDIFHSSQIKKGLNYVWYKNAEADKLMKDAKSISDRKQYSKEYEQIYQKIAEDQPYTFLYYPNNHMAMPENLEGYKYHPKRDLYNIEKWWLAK

Substance: ERGMT [PhrC]
- EC50 [1]: < 0.01 µM
- YFP levels (PsrfA-3×yfp) with increasing peptide concentrations, App-only strains [2]: marginally increased

Substance: FLEEI [pentapeptide reported in previous work as transported by App]
- transport by App [3]: able to transport

Substance: ARNQT [PhrA, synthetic PhrA signalling pentapeptide (ARNQT) of the RapA-PhrA system]
- percentage of cells with high YFP levels (ON cells, PspoIIG-3×yfp) [4]: ~ 20%
- fraction of sporulating cells (ON cells, PspoIIG-3×yfp) [5]: 0.2%

Substance: FGFG [tetrapeptide reported in previous work as transported by App]
- transport by App [3]: able to transport

Substance: SAIRGA [synthetic arbitrium hexapeptide of B. subtilis phage φ3T]
- optical density on ɸ3T infection with peptide, App-only (O-;A+) ([6]; AES6372, 10 µM peptide): marked reduction in optical density
- lysis on ɸ3T infection with peptide, WT (O+;A+) ([6]; WT DS2569, 10 µM peptide added at OD600=0.3, plate reader OD600): did not lyse

Substance: QRGMI [PhrF]
- EC50 [1]: < 0.01 µM
- YFP levels (PsrfA-3×yfp) with increasing peptide concentrations, App-only strains [2]: marginally increased

Substance: LPFEF [penta-PapR]
- EC50 [7]: 0.29 µM
- EC50 [8]: 0.65 µM

— PMC10569065, “Major distinctions between the two oligopeptide permease systems of Bacillus subtilis with respect to signaling, development and evolutionary divergence” (Microbiology, 2023)
